Experiments:
[1] = biological target: VEGFR I (FLT) (Homo sapiens, UniProt P17948); test: Inhibition of FLT-1 kinase activity (33P-ATP, poly-(Glu4Tyr) phosphocellulose filter assay); format: biochemical; conditions: 10 minutes at room temperature, KH = keine Hemmung = No inhibition
Description: (§1) • Stock solutions • Stock solution A: 3 mmol of ATP in water, pH 7.0 (−70° C.) • Stock solution B: g-0.33P-ATP 1 mCi/100 μl • Stock solution C: poly-(Glu4Tyr) 10 mg/ml in water Solution for Dilutions • Substrate solvent: 10 mmol of DTT, 10 mmol of manganese chloride, 100 mmol of magnesium chloride • Enzyme solution: 120 mmol of tris/HCl, pH 7.5, 10 μm of sodium vanadium oxide Sample Application 1
(§2) Inhibition of the KDR- and FLT-1 kinase activity in the presence of the compounds according to the invention
(§3) It is thoroughly mixed and incubated for 10 minutes at room temperature. Then, 10 μl of stop solution (250 mmol of EDTA, pH 7.0) is added, mixed, and 10 μl of the solution is transferred to a P 81 phosphocellulose filter. Then, it is washed several times in 0.01 M phosphoric acid. The filter paper is dried, coated with Meltilex and measured in a microbeta counter.

[2] = biological target: VEGFR II (KDR) (Homo sapiens, UniProt P35968); test: Inhibition of KDR kinase activity (33P-ATP, poly-(Glu4Tyr) phosphocellulose filter assay); format: biochemical; conditions: 10 minutes at room temperature, KH = keine Hemmung = No inhibition
Description: as §1, §2, §3

VEGFR I (FLT), sequence (P17948 27-1338, species assumed): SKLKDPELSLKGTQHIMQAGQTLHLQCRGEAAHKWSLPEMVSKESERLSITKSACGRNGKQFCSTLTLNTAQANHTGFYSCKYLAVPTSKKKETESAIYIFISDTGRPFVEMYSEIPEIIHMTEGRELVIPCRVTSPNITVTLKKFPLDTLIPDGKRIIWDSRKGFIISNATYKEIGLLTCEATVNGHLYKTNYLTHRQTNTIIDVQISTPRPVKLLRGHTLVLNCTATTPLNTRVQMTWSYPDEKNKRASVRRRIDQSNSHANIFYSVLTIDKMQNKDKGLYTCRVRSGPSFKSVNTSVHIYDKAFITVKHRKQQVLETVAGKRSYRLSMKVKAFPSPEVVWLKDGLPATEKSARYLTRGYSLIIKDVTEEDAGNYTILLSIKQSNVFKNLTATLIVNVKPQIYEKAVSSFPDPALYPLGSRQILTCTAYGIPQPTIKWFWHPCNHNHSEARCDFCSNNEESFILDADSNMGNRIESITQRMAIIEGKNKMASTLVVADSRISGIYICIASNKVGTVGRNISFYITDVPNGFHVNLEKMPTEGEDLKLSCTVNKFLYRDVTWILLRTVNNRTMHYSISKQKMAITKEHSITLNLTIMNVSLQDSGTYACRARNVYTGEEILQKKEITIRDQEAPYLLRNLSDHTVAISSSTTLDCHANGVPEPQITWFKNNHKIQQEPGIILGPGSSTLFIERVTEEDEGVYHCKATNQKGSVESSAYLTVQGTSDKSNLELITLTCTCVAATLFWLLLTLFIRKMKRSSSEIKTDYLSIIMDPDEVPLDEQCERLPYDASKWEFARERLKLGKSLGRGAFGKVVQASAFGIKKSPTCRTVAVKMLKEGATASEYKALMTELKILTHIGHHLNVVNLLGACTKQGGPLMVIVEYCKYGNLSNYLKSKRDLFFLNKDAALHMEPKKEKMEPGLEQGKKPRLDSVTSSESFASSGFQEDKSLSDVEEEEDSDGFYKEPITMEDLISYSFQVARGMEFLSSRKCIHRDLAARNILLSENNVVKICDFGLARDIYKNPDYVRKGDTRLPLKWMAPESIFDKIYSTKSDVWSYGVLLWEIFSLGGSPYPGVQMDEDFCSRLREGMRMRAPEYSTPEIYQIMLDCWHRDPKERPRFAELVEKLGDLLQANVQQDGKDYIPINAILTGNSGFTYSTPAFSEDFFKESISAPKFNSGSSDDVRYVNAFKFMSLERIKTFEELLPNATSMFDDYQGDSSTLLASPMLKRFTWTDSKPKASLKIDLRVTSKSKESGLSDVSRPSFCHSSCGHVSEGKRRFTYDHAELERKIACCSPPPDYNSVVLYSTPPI
VEGFR II (KDR), sequence (P35968 20-1356, species assumed): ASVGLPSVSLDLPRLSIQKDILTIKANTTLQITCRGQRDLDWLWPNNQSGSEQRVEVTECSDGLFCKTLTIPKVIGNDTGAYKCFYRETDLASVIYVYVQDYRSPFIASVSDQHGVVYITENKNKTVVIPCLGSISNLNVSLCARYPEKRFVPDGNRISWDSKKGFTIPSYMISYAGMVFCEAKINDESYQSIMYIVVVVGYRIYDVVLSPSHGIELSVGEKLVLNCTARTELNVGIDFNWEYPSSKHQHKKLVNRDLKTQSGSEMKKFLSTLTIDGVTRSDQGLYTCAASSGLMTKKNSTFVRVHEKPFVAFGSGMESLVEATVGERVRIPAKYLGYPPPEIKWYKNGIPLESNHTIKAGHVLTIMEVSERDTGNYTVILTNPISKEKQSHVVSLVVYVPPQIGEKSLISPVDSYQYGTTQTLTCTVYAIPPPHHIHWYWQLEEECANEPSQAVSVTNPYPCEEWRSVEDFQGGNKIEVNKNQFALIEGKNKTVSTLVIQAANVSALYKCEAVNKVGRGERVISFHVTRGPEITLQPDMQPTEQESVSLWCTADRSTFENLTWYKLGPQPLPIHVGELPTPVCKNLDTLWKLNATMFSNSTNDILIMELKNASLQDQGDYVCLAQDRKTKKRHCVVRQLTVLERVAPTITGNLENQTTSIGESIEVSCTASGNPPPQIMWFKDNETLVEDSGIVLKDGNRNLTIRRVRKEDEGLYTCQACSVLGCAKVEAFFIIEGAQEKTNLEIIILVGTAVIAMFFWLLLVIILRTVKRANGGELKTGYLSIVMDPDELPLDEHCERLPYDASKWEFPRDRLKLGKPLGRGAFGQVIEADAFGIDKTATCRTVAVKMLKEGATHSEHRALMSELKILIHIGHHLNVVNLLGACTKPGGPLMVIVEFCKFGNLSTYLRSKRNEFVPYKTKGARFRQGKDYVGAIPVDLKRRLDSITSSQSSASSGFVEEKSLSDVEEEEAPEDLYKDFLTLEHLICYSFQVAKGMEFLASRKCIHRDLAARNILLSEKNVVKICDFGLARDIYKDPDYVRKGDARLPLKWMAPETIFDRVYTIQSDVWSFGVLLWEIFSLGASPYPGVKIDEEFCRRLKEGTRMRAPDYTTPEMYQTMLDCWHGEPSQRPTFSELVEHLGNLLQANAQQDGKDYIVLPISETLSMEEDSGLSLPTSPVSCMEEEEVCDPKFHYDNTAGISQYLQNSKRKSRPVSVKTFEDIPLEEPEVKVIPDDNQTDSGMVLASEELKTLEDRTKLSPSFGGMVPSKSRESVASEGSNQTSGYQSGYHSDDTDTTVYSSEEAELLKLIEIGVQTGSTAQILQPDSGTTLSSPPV

IC50 [1] [nM] | IC50 [2] [nM] | Compound
50 | 50 | O=C(NCCCc1ccccc1)c1ccccc1NCc1ccncc1 [Example 2.0, N-(3-phenylprop-1-yl)-N2-(4-pyridylmethyl)-anthranilic acid amide]
10 | 300 | O=C(NCc1ccc(Cl)cc1)c1ccccc1NCc1ccncc1 [Example 2.1]
100 | 500 | O=C(NC1Cc2ccccc2C1)c1ccccc1NCc1ccncc1 [Example 2.2]
20 | 20 | O=C(NCCc1ccc(Cl)cc1)c1ccccc1NCc1ccncc1 [Example 2.3]
20 | 100 | O=C(NNc1ccc(Cl)cc1)c1ccccc1NCc1ccncc1 [Example 2.4]
1000 | – | CN(NC(=O)c1ccccc1NCc1ccncc1)c1ccccc1 [Example 2.5]
200 | 2000 | O=C(NCc1cccs1)c1ccccc1NCc1ccncc1 [Example 2.6]
500 | 100 | O=C(NCCc1c[nH]c2cc(F)ccc12)c1ccccc1NCc1ccncc1 [Example 2.8]
5000 | – | COc1cc2c(cc1OC)CC(NC(=O)c1ccccc1NCc1ccncc1)CC2 (stereo not drawn) [Example 2.9]
3000 | – | O=C(NCc1ccncc1)c1ccccc1NCc1ccncc1 [Example 2.10]
20 | 200 | O=C(NCc1cccc2ccccc12)c1ccccc1NCc1ccncc1 [Example 2.11]
700 | 3000 | CC(NC(=O)c1ccccc1NCc1ccncc1)c1cccc2ccccc12 (stereo not drawn) [Example 2.12]
700 | 3000 | O=C(NC1CCCc2ccccc21)c1ccccc1NCc1ccncc1 (stereo not drawn) [Example 2.13]
500 | 300 | O=C(NCCCc1ccc(Cl)cc1)c1ccccc1NCc1ccncc1 [Example 2.14]
1000 | – | CC(NC(=O)c1ccccc1NCc1ccncc1)c1ccc(Cl)cc1 (stereo not drawn) [Example 2.15]
100 | 200 | CC(CNC(=O)c1ccccc1NCc1ccncc1)c1ccc(Cl)cc1 (stereo not drawn) [Example 2.16]
400 | 500 | CC(Cc1ccc(Cl)cc1)NC(=O)c1ccccc1NCc1ccncc1 (stereo not drawn) [Example 2.17]
300 | 500 | CC(CNC(=O)c1ccccc1NCc1ccncc1)c1ccccc1 (stereo not drawn) [Example 2.18]
> 10000 | > 10000 | CC(C)(NC(=O)c1ccccc1NCc1ccncc1)c1ccccc1 [Example 2.19]
4000 | – | O=C(NC1CCc2cc(Cl)ccc21)c1ccccc1NCc1ccncc1 (stereo not drawn) [Example 2.20]
2000 | 300 | COc1ccc(CCNC(=O)c2ccccc2NCc2ccncc2)cc1OC [Example 2.21]

IC50 [1] [nM] | IC50 [2] [nM] | Compound
20 | 670 | O=C(Nc1ccc2nsnc2c1)c1ccccc1NCc1ccncc1 [Example 2.23]
500 | > 1000 | O=C(N[C@@H]1CCCc2ccccc21)c1ccccc1NCc1ccncc1 [Example 2.24]
200 | 200 | O=C(Nc1cccc2ncccc12)c1ccccc1NCc1ccncc1 [Example 2.26]
100 | 270 | O=C(Nc1nccc2ccccc12)c1ccccc1NCc1ccncc1 [Example 2.31]
20 | 20 | O=C(Nc1ncc(Cl)cn1)c1ccccc1NCc1ccncc1 [Example 2.32]
1000 | 2000 | O=C(Nc1cc2ccccc2c(Nc2cc3ccccc3c(Br)n2)n1)c1ccccc1NCc1ccncc1 [Example 2.33]
2000 | 100 | O=C(Nc1cccc2cccnc12)c1ccccc1NCc1ccncc1 [Example 2.34]
98 | 20 | COc1ccc(CCNC(=O)c2ccccc2NCc2ccncc2)cc1 [Example 2.35]
200 | – | O=C(Nc1ccccn1)c1ccccc1NCc1ccncc1 [Example 2.37]
7000 | 200 | O=C(NCc1cccnc1)c1ccccc1NCc1ccncc1 [Example 2.38]
50 | 30 | O=C(Nc1ccc(Cl)cn1)c1ccccc1NCc1ccncc1 [Example 2.39]
500 | – | O=C(Nc1cccnc1)c1ccccc1NCc1ccncc1 [Example 2.40]
1000 | 300 | O=C(Nc1nnc(C(F)(F)F)s1)c1ccccc1NCc1ccncc1 [Example 2.41]
500 | 100 | O=C(NCc1ccc(C(F)(F)F)cc1)c1ccccc1NCc1ccncc1 [Example 2.42]
20 | 50 | O=C(Nc1cc(-c2ccccc2)[nH]n1)c1ccccc1NCc1ccncc1 [Example 2.43]
300 | 200 | O=C(NC1CCC(c2ccccc2)CC1)c1ccccc1NCc1ccncc1 (stereo not drawn) [Example 2.44]
100 | – | O=C(N[C@H]1CCCc2ccccc21)c1ccccc1NCc1ccncc1 [Example 2.45]
20 | – | O=C(NCc1nccc2ccccc12)c1ccccc1NCc1ccncc1 [Example 2.47]
100 | 500 | O=C(NCc1ccc2ccccc2n1)c1ccccc1NCc1ccncc1 [Example 2.48]
80 | 50 | O=C(Nc1ccc2c(c1)NCCC2)c1ccccc1NCc1ccncc1 [Example 2.49]
50 | – | O=C(Nc1ccc2ncccc2c1)c1ccccc1NCc1ccncc1 [Example 2.52]

IC50 [1] [nM] | IC50 [2] [nM] | Compound
20 | 20 | O=C(Nc1ccc2ccccc2n1)c1ccccc1NCc1ccncc1 [Example 2.53]
20 | 5 | O=C(Nc1cc2ccccc2cn1)c1ccccc1NCc1ccncc1 [Example 2.54]
300 | 200 | O=C(Nc1cccc2cnccc12)c1ccccc1NCc1ccncc1 [Example 2.55]
40 | 20 | O=C(Nc1ccc2[nH]ccc2c1)c1ccccc1NCc1ccncc1 [Example 2.56]
– | 0.3 | O=C(Nc1cc2ccccc2cn1)c1cc(F)ccc1NCc1ccncc1 [Example 2.63]
– | 3000 | COc1ccc(CNc2ccccc2C(=O)NCc2ccc(Cl)cc2)cc1 [Example 3.0, N-(4-chlorobenzyl)-N-2-(4-methoxybenzyl)anthranilamide]
500 | 200 | O=C(NCCc1ccc(Cl)cc1)c1ccccc1NCc1ccc(O)cc1 [Example 4.0, N-[2-(4-chlorophenyl)ethyl]-N-2-(4-hydroxybenzyl)anthranilamide]
40 | 40 | O=C(Nc1ccc2[nH]ncc2c1)c1ccccc1NCc1ccncc1 [Example 8.0, N-(indazol-5-yl) N2-(4-pyridylmethyl)-anthranilic acid amide]
200 | 200 | O=C(Nc1nc2ccccc2[nH]1)c1ccccc1NCc1ccncc1 [Example 8.2]
50 | 20 | O=C(Nc1ccc2ncsc2c1)c1ccccc1NCc1ccncc1 [Example 8.8]
500 | 500 | O=C(Nc1nc2ccc(OC(F)(F)F)cc2s1)c1ccccc1NCc1ccncc1 [Example 8.9]
20 | 20 | O=C(Nc1ccc2cn[nH]c2c1)c1ccccc1NCc1ccncc1 [Example 8.10]
200 | – | O=C(Nc1ccncc1)c1ccccc1NCc1ccncc1 [Example 8.11]
200 | 100 | Cn1c(NC(=O)c2ccccc2NCc2ccncc2)nc2ccccc21 [Example 8.12]
500 | 500 | O=C(Nc1nc2ccc(Cl)cc2s1)c1ccccc1NCc1ccncc1 [Example 8.13]
500 | 200 | O=C(Nc1ccc2nc[nH]c2c1)c1ccccc1NCc1ccncc1 [Example 8.14]
200 | 200 | O=C(Nc1ccc2[nH]nnc2c1)c1ccccc1NCc1ccncc1 [Example 8.15]
200 | 300 | O=C(Nc1nc2ccc(F)cc2s1)c1ccccc1NCc1ccncc1 [Example 8.16]
– | 50 | O=C(Nc1nc2c(Cl)cccc2s1)c1ccccc1NCc1ccncc1 [Example 8.17]
